Broadly, the pIC50 is the IC50 on a negative log10 scale, so that one unit is a factor of ten.

This passage reports IC50 results from patent publication US10934302B1, “SHP2 phosphatase inhibitors and methods of use thereof” (Relay Therapeutics, Inc., priority 2018, dated 2021).

pIC50: −log10 of the molar value.

Sequence of SHP2 (Q06124 whole entry): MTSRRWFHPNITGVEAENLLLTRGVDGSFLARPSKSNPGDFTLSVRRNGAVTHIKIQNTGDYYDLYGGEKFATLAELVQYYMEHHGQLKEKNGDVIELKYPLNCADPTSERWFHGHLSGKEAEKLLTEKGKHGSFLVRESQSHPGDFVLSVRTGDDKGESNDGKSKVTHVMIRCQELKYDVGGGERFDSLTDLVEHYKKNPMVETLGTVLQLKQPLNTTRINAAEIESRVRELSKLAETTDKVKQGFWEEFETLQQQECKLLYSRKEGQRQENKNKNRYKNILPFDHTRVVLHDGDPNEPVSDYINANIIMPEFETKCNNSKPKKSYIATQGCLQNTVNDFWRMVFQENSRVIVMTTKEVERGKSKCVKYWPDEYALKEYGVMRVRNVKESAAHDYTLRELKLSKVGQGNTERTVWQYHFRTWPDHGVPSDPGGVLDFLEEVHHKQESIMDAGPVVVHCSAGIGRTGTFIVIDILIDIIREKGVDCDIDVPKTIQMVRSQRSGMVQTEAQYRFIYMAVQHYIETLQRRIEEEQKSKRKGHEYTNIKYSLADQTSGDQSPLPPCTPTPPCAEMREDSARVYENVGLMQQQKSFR

The test has as its target SHP2 (Homo sapiens (Human), UniProt Q06124). The experiment in a line: SHP2 allosteric inhibition assay (DiFMUP prompt fluorescence). Format: biochemical. The note with it: 0.25 nM SHP2 activated with 0.5 μM peptide IRS1_pY1172(dPEG8)pY1222; substrate DiFMUP.
In turn, `Cn1nccc1-c1cc(N2CCC3(CC2)Cc2ccccc2[C@H]3N)cn2ccnc12` [Example 201] gave a pIC50 not below 7.30.
The molecule `Cn1cc2c(N3CCC4(CC3)Cc3ccccc3[C@H]4N)ncnc2n1` [Example 182] had a pIC50 of less than 5.00.
Then `Cc1nc(N2CCC3(CC2)Cc2ccccc2[C@H]3N)cnc1SC1CCCC1` [Example 250, (3S)-1′-[5-(cyclopentylsulfanyl)-6-methylpyrazin-2-yl]-1,3-dihydrospiro[indene-2,4′-piperidin]-3-amine], with not below 7.30.
As to `Cn1cc(-c2ccc3c(n2)CCCN3c2n[nH]c3nc(N4CCC5(CC4)Oc4ccccc4[C@H]5N)cnc23)cn1` [Example 60], the negative-log IC50 (pIC50) is not below 7.30.
Molecule `N[C@@H]1c2ccccc2CC12CCN(c1cnc3c(-c4ccncc4F)n[nH]c3n1)CC2` [Example 74] gave a pIC50 not below 7.30.
Molecule `Cn1ncc2c1CC1(CCN(c3cnc4c(N5CCCc6ncccc65)n[nH]c4n3)CC1)[C@@H]2N` [Example 110] gave a pIC50 not below 7.30.
`Nc1nccc(Sc2ccc(N3CCC4(CC3)Cc3ccc(F)cc3[C@H]4N)cn2)c1Cl` [Example 218] gave a pIC50 not below 7.30.
Regarding `N[C@@H]1c2ccccc2CC12CCN(c1cnc(OCc3cccc4cccnc34)cn1)CC2` [Example 198], the pIC50 is less than 5.00.
Then `Cn1cnc2ccnc(N3CCC4(CC3)Cc3ccccc3[C@H]4N)c21` [Example 183], with less than 5.00; and `CNC(=O)c1n[nH]c2nc(N3CCC4(CC3)Cc3ccccc3[C@H]4N)c(C)nc12` [Example 125, 6-[(3S)-3-amino-1,3-dihydrospiro[indene-2,4′-piperidin]-1′-yl]-N,5-dimethyl-1H-pyrazolo[3,4-b]pyrazine-3-carboxamide], with not below 7.30.
In turn, `N#CCc1n[nH]c2nc(N3CCC4(CC3)Cc3ccccc3[C@H]4N)c(CO)nc12` [Example 153, 2-{6-[(3S)-3-amino-1,3-dihydrospiro[indene-2,4′-piperidin]-1′-yl]-5-(hydroxymethyl)-1H-pyrazolo[3,4-b]pyrazin-3-yl}acetonitrile] gave a pIC50 not below 7.30.
Molecule `N[C@@H]1c2ccccc2CC12CCN(c1cnc3c(Sc4ccnc(Cl)c4Cl)n[nH]c3n1)CC2` [Example 91] had a pIC50 of 5.00 to 6.00.
`N[C@@H]1c2ccccc2CC12CCN(c1cnc3c(-c4ccnc(Cl)c4F)n[nH]c3n1)CC2` [Example 67, (3S)-1′-[3-(2-chloro-3-fluoropyridin-4-yl)-1H-pyrazolo[3,4-b]pyrazin-6-yl]-1,3-dihydrospiro[indene-2,4′-piperidin]-3-amine] gave a pIC50 not below 7.30.
`N[C@H]1c2ccccc2C[C@]12CC[C@@H](c1cnc(SCC3CC3)cn1)CC2` [Example 285, (1r, 4r)-4-{5-[(cyclopropylmethyl)sulfanyl]pyrazin-2-yl}-1′,3′-dihydrospiro[cyclohexane-1,2′-inden]-3′-amine] showed a pIC50 not below 7.30.
In the case of `NC1c2ccccc2CC12CCN(c1nc3[nH]nc(N4CCCc5ncccc54)c3nc1CO)CC2` (stereo not drawn) [Example 99], the negative-log IC50 (pIC50) was not below 7.30.
The same measure for `N[C@@H]1c2ccccc2CC12CCN(c1cnc3c(-c4cccc5ncccc45)n[nH]c3n1)CC2` [Example 68]: not below 7.30; for `N[C@@H]1c2ccccc2CC12CCN(c1cnc(Sc3cc[nH]c(=O)c3Cl)cn1)CC2` [Example 131, 4-({5-[(3S)-3-amino-1,3-dihydrospiro[indene-2,4′-piperidin]-1′-yl]pyrazin-2-yl}sulfanyl)-3-chloro-1,2-dihydropyridin-2-one]: not below 7.30.
For `N[C@@H]1c2ccccc2CC12CCN(c1nc3[nH]nc(N4CCCCC4)c3nc1CO)CC2` [Example 103], the pIC50 was not below 7.30.
Then `N[C@@H]1c2ccccc2CC12CCN(c1ncc(N3CCCc4ncccc43)nc1CO)CC2` [Example 211, {3-[(3S)-3-amino-1,3-dihydrospiro[indene-2,4′-piperidin]-1′-yl]-6-(1,2,3,4-tetrahydro-1,5-naphthyridin-1-yl)pyrazin-2-yl}methanol], with 6.00 to 7.30.
Then `Cc1nc2c(C#N)n[nH]c2nc1N1CCC2(CC1)Cc1ccccc1[C@H]2N` [Example 163, 6-[(3S)-3-amino-1,3-dihydrospiro[indene-2,4′-piperidin]-1′-yl]-5-methyl-1H-pyrazolo[3,4-b]pyrazine-3-carbonitrile], with 5.00 to 6.00.
For the molecule `Nc1nccc(-c2n[nH]c3nc(N4CCC5(CC4)Cc4ccccc4[C@H]5N)cnc23)c1F` [Example 78, (S)-1′-(3-(2-amino-3-fluoropyridin-4-yl)-1H-pyrazolo[3,4-b]pyrazin-6-yl)-1,3-dihydrospiro[indene-2,4′-piperidin]-1-amine], the pIC50 was not below 7.30.
With `N[C@@H]1c2ccccc2CC12CCN(c1cnc3c(C#Cc4ccccc4)n[nH]c3n1)CC2` [Example 143, (S)-1′-(3-(phenylethynyl)-1H-pyrazolo[3,4-b]pyrazin-6-yl)-1,3-dihydrospiro[indene-2,4′-piperidin]-1-amine], the negative logarithm of the IC50 (pIC50) was not below 7.30.
Then `Cn1cc(-c2ccc3c(n2)CCCN3c2n[nH]c3nc(N4CCC5(CC4)Cc4cccc(F)c4[C@H]5N)cnc23)cn1` [Example 48], with not below 7.30.
As for `N[C@H]1c2ccccc2OC12CCN(c1cnc3c(N4CCCc5ncccc54)n[nH]c3n1)CC2` [Example 118, (S)-1′-(3-(3,4-dihydro-1,5-naphthyridin-1(2H)-yl)-1H-pyrazolo[3,4-b]pyrazin-6-yl)-3H-spiro[benzofuran-2,4′-piperidin]-3-amine], the pIC50 is not below 7.30.
For `CS(=O)(=O)c1cccc2c1CCCN2c1n[nH]c2nc(N3CCC4(CC3)Cc3c(F)cccc3[C@H]4N)cnc12` [Example 56], the pIC50 was not below 7.30.
The molecule `N[C@H]1c2ccccc2C[C@]12CC[C@H](c1cnc3c(N4CCCc5ncccc54)n[nH]c3n1)CC2` (single isomer, unassigned) [Example 188, (1s, 1′R, 4S)-4-(3-(3,4-dihydro-1,5-naphthyridin-1(2H)-yl)-1H-pyrazolo[3,4-b]pyrazin-6-yl)-1′,3′-dihydrospiro[cyclohexane-1,2′-inden]-1′-amine] showed a pIC50 of less than 5.00.
Molecule `NC1c2ccccc2CC12CCC(c1cnc(SCC3CC3)cn1)CC2` (single isomer, unassigned) [Example 283, (1s, 3'S, 4R)-4-{5-[(cyclopropylmethyl)sulfanyl]pyrazin-2-yl}-1′,3′-dihydrospiro[cyclohexane-1,2′-inden]-3′-amine] gave a pIC50 of less than 5.00.
Then `N[C@@H]1c2ccccc2CC12CCN(c1cnc(Sc3ccnc(Cl)c3Cl)cn1)CC2` [Example 130, (3S)-1′-{5-[(2,3-dichloropyridin-4-yl)sulfanyl]pyrazin-2-yl}-1,3-dihydrospiro[indene-2,4′-piperidin]-3-amine], with not below 7.30; and `Nc1nccc(Sc2cnc(C34C[C@@H]5C[C@@]6(C[C@H](C3)N54)Oc3ccccc3[C@H]6N)cn2)c1Cl` (stereo partly drawn) [Example 232], with not below 7.30; and `NC1C2CC2CC12CCN(c1cnc3c(N4CCCc5ncccc54)n[nH]c3n1)CC2` (stereo not drawn) [Example 7, 1′-(3-(3,4-dihydro-1,5-naphthyridin-1(2H)-yl)-1H-pyrazolo[3,4-b]pyrazin-6-yl)spiro[bicyclo[3.1.0]hexane-3,4′-piperidin]-2-amine], with not below 7.30.
The same measure for `CS(=O)(=O)c1cccc2c1CCCN2c1n[nH]c2nc(N3CCC4(CC3)Cc3ccccc3[C@H]4N)c(CO)nc12` [Example 98, {6-[(3S)-3-amino-1,3-dihydrospiro[indene-2,4′-piperidin]-1′-yl]-3-(5-methanesulfonyl-1,2,3,4-tetrahydroquinolin-1-yl)-1H-pyrazolo[3,4-b]pyrazin-5-yl}methanol]: 6.00 to 7.30; for `Cc1nc2c(N3CCCc4nc(-c5cnn(C)c5)ccc43)n[nH]c2nc1N1CCC2(CC1)Cc1ccccc1[C@H]2N` [Example 149, (3S)-1′-{5-methyl-3-[6-(1-methyl-1H-pyrazol-4-yl)-1,2,3,4-tetrahydro-1,5-naphthyridin-1-yl]-1H-pyrazolo[3,4-b]pyrazin-6-yl}-1,3-dihydrospiro[indene-2,4′-piperidin]-3-amine]: not below 7.30.
As for `N#Cc1ccc2c(c1)N(C1(C#N)CC1)CCN2c1n[nH]c2nc(N3CCC4(CC3)Cc3ccccc3[C@H]4N)cnc12` [Example 39], the negative logarithm of the IC50 (pIC50) is not below 7.30.
Then `N[C@@H]1c2ccccc2CC12CCN(c1cn3ccnc3cn1)CC2` [Example 169, (3S)-1′-{imidazo[1,2-a]pyrazin-6-yl}-1,3-dihydrospiro[indene-2,4′-piperidin]-3-amine], with 5.00 to 6.00; and `Nc1nccc(Sc2cnc3c(n2)OC[C@H]2C[C@@]4(CCN32)Oc2ccccc2[C@@H]4N)c1Cl` [Example 221], with not below 7.30.
Then `Cn1c(N2CCC3(CC2)Cc2ccccc2[C@H]3N)ncc(N2CCCc3ccccc32)c1=O` [Example 205], with 6.00 to 7.30.
The same measure for `CNC(=O)c1cc(C)nc(N2CCC3(CC2)Cc2ccccc2[C@H]3N)c1` [Example 228]: less than 5.00; for `N[C@@H]1c2ccccc2OC12CCN(c1nc3[nH]ncc3nc1CO)CC2` [Example 159, {6-[(3R)-3-amino-3H-spiro[1-benzofuran-2,4′-piperidin]-1′-yl]-1H-pyrazolo[3,4-b]pyrazin-5-yl}methanol]: not below 7.30.
In the case of `Nc1nccc(Sc2ccc(N3CCC4(CC3)Cc3ccccc3[C@H]4N)cn2)c1Cl` [Example 97], the pIC50 is 6.00 to 7.30.
`Cc1nc2c(N3CCCCC3)n[nH]c2nc1N1CCC2(CC1)Oc1cc(F)ccc1[C@H]2N` [Example 278, (3R)-6-fluoro-1′-[5-methyl-3-(piperidin-1-yl)-1H-Pyrazolo[3,4-b]pyrazin-6-yl]-3H-spiro[1-benzofuran-2,4′-piperidin]-3-amine]: the pIC50 was not below 7.30.
Turning to `Nc1nc(N2CCC3(CC2)Cc2ccccc2[C@H]3N)cnc1-c1cccc(Cl)c1Cl` [Example 22, (3S)-1′-[6-amino-5-(2,3-dichlorophenyl)pyrazin-2-yl]-1,3-dihydrospiro[indene-2,4′-piperidin]-3-amine], the pIC50 was not below 7.30.
`N[C@@H]1c2ccccc2CC12CCN(c1cnc(Sc3cccc(Cl)c3Cl)cn1)CC2` [Example 147, (S)-1′-(5-((2,3-dichlorophenyl)thio)pyrazin-2-yl)-1,3-dihydrospiro[indene-2,4′-piperidin]-1-amine] had a pIC50 not below 7.30.
